Measured values published in article PMC8962522, “Direct interaction of TrkA/CD44v3 is essential for NGF-promoted aggressiveness of breast cancer cells” (Journal of Experimental & Clinical Cancer Research : CR, 2022).
“Also recorded” adds a separate entry of the source.

Legend:
[1] = tested on: TrkA/CD44v3 complex in SUM159-PT cells; assay: PLA TrkA/CD44v3 complex formation in SUM159-PT cells; assay type: cell-based; conditions: triple negative; NGF 100 ng/ml
Description: Cells (10,000 cells per well) were grown on acid-washed eight-well glass slides (Thermo Scientific) in the appropriate medium supplemented with 10% FBS for 24 h. After NGF treatment, paraformaldehyde (PAF)-fixed cells were incubated with 4% bovine serum albumin (BSA) or 5% FBS (for 1 h at 20 °C), followed by overnight incubation with primary antibodies (rabbit anti-TrkA or rabbit anti-IgG + mouse anti-pan-CD44; mouse anti-CD44v3; mouse anti-CD44v6; mouse anti-IgG2a; mouse anti-IgG2b; or mouse anti-IgG1). PLA was performed following the manufacturer’s instructions in the assay kit (Duolink PLA; Sigma–Aldrich). To obtain the correct representation of the PLA signal for each condition, 30 fields per condition were observed using a fluorescence microscope (Eclipse TiU; Nikon, Japan). The PLA signals (red dots) were automatically quantified using ImageJ software (with an in-house-developed plug-in). […]
Fig. 7 The TrkA/CD44v3 complex is formed in PR-negative breast cancer cells and tumors. TrkA/CD44v3 complex formation was measured in SUM159-PT (triple negative—i.e., ERα-, PR-, and Her2-) cells (A), T47-D (luminal A—i.e., ERα+, PR+, and Her2-) cells (B), BT-474 (luminal B—ERα+, PR+, and Her2+) cells (C), HCC-1954 (Her2-like—ERα-, PR-, and Her2+) cells (D), and 150 tumor patient samples obtained from US BioMax (HBre-Duc150Sur01) (E, F) using the proximity ligation assay (PLA). […]

CD44v3 = assay: MST binding of P4 to CD44v3; conditions: Supplementary Fig. 6C, listed as P4
Description: MST was conducted using an NT.115 A Pico MST instrument (Nano Temper Technologies GmbH) equipped with red and blue filter sets. The TrkA-His tagged extracellular domain protein (Ala 34-Gly423) (9966-TK-050; R&D Systems, United Kingdom), diluted to 200 nM in PBS-T buffer (supplied by the vendor), was labeled using a Monolith His-Tag Labeling Kit with RED-Tris-NTA (Nano Temper). The RED-Tris-NTA dye was diluted in PBS-T to 100 nM. The mix was incubated at RT in the dark for 30 min. Next, an extract expressing CD44v3-labeled protein (CD44v3-His) and ligand and/or TrkA was mixed at a 1:1 ratio and incubated at RT in the dark for 15 min. For the binding check, peptides and TrkA-His were used. […] The data were analyzed using MO Control Software (Nano Temper).
To block the TrkA-CD44v3 association, 4 mimetic peptides of CD44v3 were designed corresponding to zone 1 [(K) STSSNTISAG], zone 2 (WEPNEENEDE), zone 3 (RDRHLSFSGSG) and zone 4 (IDDDEDFISST) (Fig. 2F & G). The binding capacities of the CD44v3 mimetic peptides to TrkA were then measured by MST (Fig. 2H). […] To confirm mimetic peptide 4 binding, we assessed its ability to bind TrkA using nanoscale differential scanning fluorimetry (nanoDSF; Supplementary Fig. 6A & B).
Supplementary file 13046_2022_2314_MOESM3_ESM.pdf: Additional file 3: Supplementary Figure 1. […] CD44v3 and CD44v6 levels at the plasma membrane were assessed by flow cytometry (A-D). […]

Substance	effect on TrkA/CD44v3 complex formation (PLA) in SUM159-PT cells [1]	binding to CD44v3 (in words) (CD44v3)
NGF: recombinant human β-NGF (Alomone Labs, Israel)	NGF induction of CD44v3/TrkA complex formation was observed in SUM-159PT (TN) and HCC-1954 (Her2) cells	–
IDDDEDFISST [Peptide 4, mimetic peptide 4 (…) corresponding to the C-terminal region of CD44v3]	–	we did not detect CD44v3/P4 binding; also recorded: binds to TrkA but not to CD44v3
